Measured values from ChEMBL document CHEMBL1150995, “DNA cleavage by photoexcited diazoarenes” (Bioorg Med Chem Lett, 1997).

Assays:
[1] = Inhibitory effect of DABCO (0.2 M) on light induced nuclease activity was determined
[2] = Inhibitory effect of DMSO (0.2 M) on light induced nuclease activity was determined
[3] = Inhibitory effect of cumene (100 uM) on light induced nuclease activity was determined
[4] = Inhibitory effect of D2O on light induced nuclease activity was determined; conditions: concentration not given here
[5] = Inhibitory effect of 2-Propanol (100 uM) on light induced nuclease activity was determined
[6] = Inhibitory effect of Mannitol (100 mM) on light induced nuclease activity was determined
[7] = Inhibitory effect of triphenylphosphine (100 uM) on light induced nuclease activity was determined
[8] = Inhibitory effect of SOD (100 ng) on light induced nuclease activity was determined

Row | inhibition [1] | inhibition [2] | inhibition [3] | inhibition [4] | inhibition [5] | inhibition [6] | inhibition [7] | inhibition [8] | SMILES
1 | 30% | 12% | 39% | 10% | 25% | 5% | 35% | 10% | [N-]=[N+]=C1c2ccccc2C(=O)c2ccccc21
2 | 38% | 5% | 58% | 8% | 30% | 3% | 35% | 8% | [N-]=[N+]=c1c2ccccc2oc2ccccc12
